Results: PMC6120666 (The EMBO Journal, 2018)

Tests used:
Experiment in all cases: Drug affinity chromatography with c-ponatinib and LC-MS/MS (ponatinib interactome)
Format in all cases: binding
[1] = biological target: T1, proteins of U2OS cell lysate (Homo sapiens, UniProt Q14566); conditions: MCM6, DNA replication licensing factor MCM6
T1 construct: Proteins enriched by c-ponatinib from U2OS cell lysate; endogenous in cells; host or cells: U2OS cell lysate
Method in brief: (§1)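 U2OS cell lysate in NP-40 lysis buffer (2 mg protein per pulldown) was incubated with amine-derivatized NHS beads for 2 h at 4 °C. Bound proteins were washed, eluted with 100 mM formic acid, reduced, alkylated and trypsin-digested, then identified by nano-UPLC–MS/MS on Orbitrap instruments with a 60 min gradient.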

[2] = biological target: T2, proteins of U2OS cell lysate (Homo sapiens, UniProt O00231); conditions: PSMD11, 26S proteasome non-ATPase regulatory subunit 11
T2 construct: Proteins enriched by c-ponatinib from U2OS cell lysate; endogenous in cells; host or cells: U2OS cell lysate
Method in brief: as §1

[3] = biological target: T3, proteins of U2OS cell lysate (Homo sapiens, UniProt P35579); conditions: MYH9, Myosin-9
T3 construct: Proteins enriched by c-ponatinib from U2OS cell lysate; endogenous in cells; host or cells: U2OS cell lysate
Method in brief: as §1

[4] = biological target: T4, proteins of U2OS cell lysate (Homo sapiens, UniProt Q9UHD8); conditions: SEPT9, Septin-9
T4 construct: Proteins enriched by c-ponatinib from U2OS cell lysate; endogenous in cells; host or cells: U2OS cell lysate
T4 sequence (Q9UHD8 whole entry): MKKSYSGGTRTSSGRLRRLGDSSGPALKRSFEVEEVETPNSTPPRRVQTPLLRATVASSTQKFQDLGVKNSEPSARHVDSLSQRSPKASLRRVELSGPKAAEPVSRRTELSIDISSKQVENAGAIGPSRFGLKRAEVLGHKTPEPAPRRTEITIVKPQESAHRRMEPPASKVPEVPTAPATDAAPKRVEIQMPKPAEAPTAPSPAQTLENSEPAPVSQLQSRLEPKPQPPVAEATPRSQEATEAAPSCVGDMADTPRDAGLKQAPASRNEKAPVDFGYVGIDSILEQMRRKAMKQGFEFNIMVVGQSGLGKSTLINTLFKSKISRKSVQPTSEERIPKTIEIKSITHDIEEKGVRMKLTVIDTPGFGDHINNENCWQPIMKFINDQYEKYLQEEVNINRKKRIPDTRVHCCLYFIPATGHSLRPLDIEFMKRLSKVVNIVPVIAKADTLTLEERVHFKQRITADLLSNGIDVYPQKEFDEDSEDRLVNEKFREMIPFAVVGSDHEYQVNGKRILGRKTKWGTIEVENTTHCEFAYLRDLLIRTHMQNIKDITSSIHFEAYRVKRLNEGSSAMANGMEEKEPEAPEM
Method in brief: as §1

[5] = biological target: T5, proteins of U2OS cell lysate (Homo sapiens, UniProt Q14165); conditions: MLEC, Malectin
T5 construct: Proteins enriched by c-ponatinib from U2OS cell lysate; endogenous in cells; host or cells: U2OS cell lysate
Method in brief: as §1

[6] = biological target: T6, proteins of U2OS cell lysate (Homo sapiens, UniProt Q92522); conditions: H1FX, Histone H1x
T6 construct: Proteins enriched by c-ponatinib from U2OS cell lysate; endogenous in cells; host or cells: U2OS cell lysate
T6 sequence (Q92522 whole entry): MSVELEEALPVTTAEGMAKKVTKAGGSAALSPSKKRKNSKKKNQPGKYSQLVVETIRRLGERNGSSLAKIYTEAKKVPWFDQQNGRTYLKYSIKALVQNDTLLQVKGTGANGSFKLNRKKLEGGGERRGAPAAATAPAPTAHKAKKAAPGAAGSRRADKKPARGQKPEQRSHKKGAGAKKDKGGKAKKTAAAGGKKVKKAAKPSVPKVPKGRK
Method in brief: as §1

[7] = biological target: T7, proteins of U2OS cell lysate (Homo sapiens, UniProt Q9Y2V7); conditions: COG6, Conserved oligomeric Golgi complex subunit 6
T7 construct: Proteins enriched by c-ponatinib from U2OS cell lysate; endogenous in cells; host or cells: U2OS cell lysate
Method in brief: as §1

[8] = biological target: T8, proteins of U2OS cell lysate (Homo sapiens, UniProt O43143); conditions: DHX15, Putative pre-mRNA-splicing factor ATP-dependent RNA helicase DHX15
T8 construct: Proteins enriched by c-ponatinib from U2OS cell lysate; endogenous in cells; host or cells: U2OS cell lysate
T8 sequence (O43143 whole entry): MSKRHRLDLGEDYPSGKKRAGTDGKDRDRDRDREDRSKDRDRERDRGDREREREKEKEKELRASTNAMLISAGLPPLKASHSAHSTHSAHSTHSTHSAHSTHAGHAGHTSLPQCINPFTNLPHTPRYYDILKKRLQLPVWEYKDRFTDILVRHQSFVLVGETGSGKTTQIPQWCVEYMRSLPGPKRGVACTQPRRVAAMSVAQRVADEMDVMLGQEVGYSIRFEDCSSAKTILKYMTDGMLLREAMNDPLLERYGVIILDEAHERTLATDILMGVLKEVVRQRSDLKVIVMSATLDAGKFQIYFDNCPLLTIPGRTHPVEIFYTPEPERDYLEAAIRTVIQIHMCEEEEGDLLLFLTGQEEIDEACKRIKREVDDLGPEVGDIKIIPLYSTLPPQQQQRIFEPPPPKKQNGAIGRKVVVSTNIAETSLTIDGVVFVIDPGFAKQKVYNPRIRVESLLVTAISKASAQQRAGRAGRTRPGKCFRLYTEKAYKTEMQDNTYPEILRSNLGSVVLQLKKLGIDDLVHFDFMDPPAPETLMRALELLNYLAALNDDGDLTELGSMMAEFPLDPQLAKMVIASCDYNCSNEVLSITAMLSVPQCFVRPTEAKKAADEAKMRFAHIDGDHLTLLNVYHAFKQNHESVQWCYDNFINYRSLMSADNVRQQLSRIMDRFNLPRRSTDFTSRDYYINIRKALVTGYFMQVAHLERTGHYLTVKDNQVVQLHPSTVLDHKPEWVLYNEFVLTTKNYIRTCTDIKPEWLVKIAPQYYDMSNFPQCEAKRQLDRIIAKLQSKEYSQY
Method in brief: as §1

[9] = biological target: T9, proteins of U2OS cell lysate (Homo sapiens, UniProt P35580); conditions: MYH10, Myosin-10
T9 construct: Proteins enriched by c-ponatinib from U2OS cell lysate; endogenous in cells; host or cells: U2OS cell lysate
Method in brief: as §1

[10] = biological target: T10, proteins of U2OS cell lysate (Homo sapiens, UniProt P63104); conditions: YWHAZ, 14-3-3 protein zeta/delta
T10 construct: Proteins enriched by c-ponatinib from U2OS cell lysate; endogenous in cells; host or cells: U2OS cell lysate
T10 sequence (P63104 whole entry): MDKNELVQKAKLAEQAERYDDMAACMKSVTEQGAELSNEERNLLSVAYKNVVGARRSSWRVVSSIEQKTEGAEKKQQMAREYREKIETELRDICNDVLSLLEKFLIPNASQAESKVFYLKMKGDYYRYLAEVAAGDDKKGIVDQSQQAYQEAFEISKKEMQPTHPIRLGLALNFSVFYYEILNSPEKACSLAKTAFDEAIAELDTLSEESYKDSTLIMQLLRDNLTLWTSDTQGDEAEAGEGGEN
Method in brief: as §1

[11] = biological target: T11, proteins of U2OS cell lysate (Homo sapiens, UniProt Q9H2K8); conditions: TAOK3;TAOK1;TAOK2, Serine/threonine-protein kinase TAO3
T11 construct: Proteins enriched by c-ponatinib from U2OS cell lysate; endogenous in cells; host or cells: U2OS cell lysate
Method in brief: as §1

[12] = biological target: T12, proteins of U2OS cell lysate (Homo sapiens, UniProt O43353); conditions: RIPK2, Receptor-interacting serine/threonine-protein kinase 2
T12 construct: Proteins enriched by c-ponatinib from U2OS cell lysate; endogenous in cells; host or cells: U2OS cell lysate
Method in brief: as §1

[13] = biological target: T13, proteins of U2OS cell lysate (Homo sapiens, UniProt P55072); conditions: VCP, Transitional endoplasmic reticulum ATPase
T13 construct: Proteins enriched by c-ponatinib from U2OS cell lysate; endogenous in cells; host or cells: U2OS cell lysate
Method in brief: as §1

[14] = biological target: T14, proteins of U2OS cell lysate (Homo sapiens, UniProt P07355); conditions: ANXA2;ANXA2P2, Annexin A2
T14 construct: Proteins enriched by c-ponatinib from U2OS cell lysate; endogenous in cells; host or cells: U2OS cell lysate
Method in brief: as §1

[15] = biological target: T15, proteins of U2OS cell lysate (Homo sapiens, UniProt P68363); conditions: TUBA1B;TUBA1A, Tubulin alpha-1B chain
T15 construct: Proteins enriched by c-ponatinib from U2OS cell lysate; endogenous in cells; host or cells: U2OS cell lysate
T15 sequence (P68363 whole entry): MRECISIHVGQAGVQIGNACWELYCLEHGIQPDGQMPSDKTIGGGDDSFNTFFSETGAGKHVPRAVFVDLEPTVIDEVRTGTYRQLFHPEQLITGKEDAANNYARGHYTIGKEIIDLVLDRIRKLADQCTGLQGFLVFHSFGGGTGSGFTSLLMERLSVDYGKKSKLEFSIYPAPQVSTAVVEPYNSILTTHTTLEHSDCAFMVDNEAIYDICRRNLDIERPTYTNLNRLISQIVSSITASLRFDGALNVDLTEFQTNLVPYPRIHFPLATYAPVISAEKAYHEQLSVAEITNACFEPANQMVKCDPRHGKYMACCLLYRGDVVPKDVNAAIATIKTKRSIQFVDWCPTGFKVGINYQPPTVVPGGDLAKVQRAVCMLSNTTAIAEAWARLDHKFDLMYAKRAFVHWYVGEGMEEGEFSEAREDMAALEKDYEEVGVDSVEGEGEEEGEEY
Method in brief: as §1

[16] = biological target: T16, proteins of U2OS cell lysate (Homo sapiens, UniProt Q9UFG5); conditions: C19orf25, UPF0449 protein C19orf25
T16 construct: Proteins enriched by c-ponatinib from U2OS cell lysate; endogenous in cells; host or cells: U2OS cell lysate
T16 sequence (Q9UFG5 whole entry): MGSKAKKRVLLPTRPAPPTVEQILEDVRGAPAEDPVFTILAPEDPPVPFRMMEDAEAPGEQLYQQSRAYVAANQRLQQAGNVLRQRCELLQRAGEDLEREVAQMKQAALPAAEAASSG
Method in brief: as §1

[17] = biological target: T17, proteins of U2OS cell lysate (Homo sapiens, UniProt O43707); conditions: ACTN4, Alpha-actinin-4
T17 construct: Proteins enriched by c-ponatinib from U2OS cell lysate; endogenous in cells; host or cells: U2OS cell lysate
T17 sequence (O43707 whole entry): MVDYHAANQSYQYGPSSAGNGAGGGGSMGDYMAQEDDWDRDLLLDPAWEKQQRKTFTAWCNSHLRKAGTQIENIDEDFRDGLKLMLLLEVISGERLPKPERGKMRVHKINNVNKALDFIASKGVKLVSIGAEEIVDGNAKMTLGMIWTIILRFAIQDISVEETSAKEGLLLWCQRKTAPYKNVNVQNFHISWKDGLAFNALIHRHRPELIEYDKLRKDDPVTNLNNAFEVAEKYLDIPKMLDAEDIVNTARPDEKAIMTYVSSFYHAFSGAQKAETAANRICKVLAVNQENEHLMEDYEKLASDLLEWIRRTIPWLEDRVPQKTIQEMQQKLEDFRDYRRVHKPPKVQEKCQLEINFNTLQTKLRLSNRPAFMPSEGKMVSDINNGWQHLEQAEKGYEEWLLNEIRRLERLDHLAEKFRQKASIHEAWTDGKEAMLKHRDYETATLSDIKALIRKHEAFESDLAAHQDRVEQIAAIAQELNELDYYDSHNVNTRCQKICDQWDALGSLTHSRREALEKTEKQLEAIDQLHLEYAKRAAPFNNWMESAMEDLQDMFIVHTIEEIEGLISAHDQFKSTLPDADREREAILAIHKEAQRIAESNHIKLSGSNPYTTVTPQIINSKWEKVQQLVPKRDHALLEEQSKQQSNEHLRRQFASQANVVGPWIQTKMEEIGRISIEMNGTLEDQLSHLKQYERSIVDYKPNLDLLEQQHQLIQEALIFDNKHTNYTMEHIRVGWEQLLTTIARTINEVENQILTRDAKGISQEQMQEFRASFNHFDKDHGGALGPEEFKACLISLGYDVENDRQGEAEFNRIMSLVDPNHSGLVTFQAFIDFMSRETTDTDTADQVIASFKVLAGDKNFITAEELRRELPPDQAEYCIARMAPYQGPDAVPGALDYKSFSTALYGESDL
Method in brief: as §1

[18] = biological target: T18, proteins of U2OS cell lysate (Homo sapiens, UniProt P10809); conditions: HSPD1, 60 kDa heat shock protein, mitochondrial
T18 construct: Proteins enriched by c-ponatinib from U2OS cell lysate; endogenous in cells; host or cells: U2OS cell lysate
T18 sequence (P10809 27-573): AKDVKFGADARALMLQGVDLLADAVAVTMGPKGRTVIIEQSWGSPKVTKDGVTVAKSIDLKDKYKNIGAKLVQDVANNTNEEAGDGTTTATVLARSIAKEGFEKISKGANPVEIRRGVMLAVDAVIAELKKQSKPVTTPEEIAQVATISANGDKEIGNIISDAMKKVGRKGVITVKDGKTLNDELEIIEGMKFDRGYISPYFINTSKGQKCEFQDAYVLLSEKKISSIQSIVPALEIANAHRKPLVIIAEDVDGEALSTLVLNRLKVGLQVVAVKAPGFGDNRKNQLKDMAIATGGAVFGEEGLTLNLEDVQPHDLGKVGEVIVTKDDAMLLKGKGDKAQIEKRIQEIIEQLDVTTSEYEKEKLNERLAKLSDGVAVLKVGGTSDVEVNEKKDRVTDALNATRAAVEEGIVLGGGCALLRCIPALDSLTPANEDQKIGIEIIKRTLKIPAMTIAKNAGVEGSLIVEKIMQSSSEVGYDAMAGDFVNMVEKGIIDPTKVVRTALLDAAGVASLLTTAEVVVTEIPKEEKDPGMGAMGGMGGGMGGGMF
Method in brief: as §1

[19] = biological target: T19, proteins of U2OS cell lysate (Homo sapiens, UniProt P25787); conditions: captured protein PSMA2, Rank 214
T19 construct: Proteins enriched by c-ponatinib from U2OS cell lysate; endogenous in cells; host or cells: U2OS cell lysate
T19 sequence (P25787 whole entry): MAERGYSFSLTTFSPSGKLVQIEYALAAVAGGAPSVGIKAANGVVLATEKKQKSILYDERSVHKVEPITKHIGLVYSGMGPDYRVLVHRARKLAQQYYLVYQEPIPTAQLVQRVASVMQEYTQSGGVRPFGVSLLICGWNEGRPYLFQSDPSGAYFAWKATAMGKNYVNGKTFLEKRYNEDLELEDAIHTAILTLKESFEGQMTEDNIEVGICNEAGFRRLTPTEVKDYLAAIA
Method in brief: as §1

T1 sequence (Q14566 whole entry): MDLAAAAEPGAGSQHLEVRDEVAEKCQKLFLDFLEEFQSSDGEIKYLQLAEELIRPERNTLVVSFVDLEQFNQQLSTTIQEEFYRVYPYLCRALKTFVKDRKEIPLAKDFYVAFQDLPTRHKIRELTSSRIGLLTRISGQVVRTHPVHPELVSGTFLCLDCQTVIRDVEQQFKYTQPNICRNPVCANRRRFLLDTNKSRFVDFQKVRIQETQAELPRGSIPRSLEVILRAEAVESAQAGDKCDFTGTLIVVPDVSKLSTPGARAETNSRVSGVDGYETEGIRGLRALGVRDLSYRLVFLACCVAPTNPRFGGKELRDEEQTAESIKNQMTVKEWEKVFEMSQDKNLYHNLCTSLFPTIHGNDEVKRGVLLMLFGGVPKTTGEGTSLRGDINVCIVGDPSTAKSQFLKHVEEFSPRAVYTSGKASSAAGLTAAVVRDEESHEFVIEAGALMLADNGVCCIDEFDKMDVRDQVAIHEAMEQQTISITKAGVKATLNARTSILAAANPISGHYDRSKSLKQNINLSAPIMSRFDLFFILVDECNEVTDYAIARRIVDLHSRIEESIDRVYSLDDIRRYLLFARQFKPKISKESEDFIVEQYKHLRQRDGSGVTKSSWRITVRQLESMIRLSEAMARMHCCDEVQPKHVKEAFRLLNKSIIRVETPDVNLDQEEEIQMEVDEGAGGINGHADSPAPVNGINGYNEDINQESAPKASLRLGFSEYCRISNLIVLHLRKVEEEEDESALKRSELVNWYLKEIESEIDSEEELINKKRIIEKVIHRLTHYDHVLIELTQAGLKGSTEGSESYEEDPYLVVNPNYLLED

SMILES	Average LFQ PON_WT [1]	Average LFQ PON_WT [2]	Average LFQ PON_WT [3]	Average LFQ PON_WT [4]	Average LFQ PON_WT [5]	Average LFQ PON_WT [6]	Average LFQ PON_WT [7]	Average LFQ PON_WT [8]	Average LFQ PON_WT [9]	Average LFQ PON_WT [10]	Average LFQ PON_WT [11]	Average LFQ PON_WT [12]	Average LFQ PON_WT [13]	Average LFQ PON_WT [14]	Average LFQ PON_WT [15]	Average LFQ PON_WT [16]	Average LFQ PON_WT [17]	Average LFQ PON_WT [18]	Average LFQ intensity [19]
Cc1ccc(C(=O)Nc2ccc(CN3CCN(C)CC3)c(C(F)(F)F)c2)cc1C#Cc1cnc2cccnn12 [PON]	19.2204	21.0044	25.6681	23.3795	19.5713	20.0616	20.9766	20.8395	20.7261	24.9214	21.1056	27.2483	23.9947	23.7363	27.3228	20.1092	19.9578	21.1431	
Cc1ccc(C(=O)Nc2ccc(CN3CCN(CCCN)CC3)c(C(F)(F)F)c2)cc1C#Cc1cnc2cccnn12 [c-ponatinib, reference compound]																			21.6987
